Source: US20080206364A1, “Topical nitric oxide as a treatment of autoimmune diseases” (Nitric Biotherapeutics, Inc., priority 2006, published 2008)
“Also recorded” adds a separate entry of the source.

What was measured:
[1] = system: leg ulcer induced by an autoimmune disorder; assay: Autoimmune wound patient: leg ulcer in antiphospholipid antibody syndrome, topical nitric oxide gas; assay type: in vivo, human
Excerpt: A patient was diagnosed with antiphospholipid antibody syndrome. Antiphospholipid antibody syndrome is an autoimmune disorder that mainly affects people under the age of 40. The disease causes the blood in the body to clot and is associated with a type of antibody that attacks blood platelets. Strokes, deep vein thrombosis (DVT), heart attacks, and pulmonary emboli are some of the manifestations of the disease. As a result of this syndrome, the patient had two DVT's and one pulmonary embolism.
Following repetitive injury to the deep venous system, the patient developed three areas of ulceration and secondary skin breakdown on the left shin area of the leg. The wound was colonized with a variety of organisms and at times had been clinically infected. The patient had been treated with numerous types of oral and IV antibiotics over several years. Many different types of dressings had been used to control the bacteria, including silver dressings, all without success.
The three small ulcers continued to grow in size and then joined together to create one large ulcer (FIG. 15A). Skin grafts on two occasions deteriorated and sloughed due to repetitive infections and high bacterial burden, even with the use of hyperbaric oxygen treatment.
With the inability to control the bacterial burden, amputation was planned. As a rescue trial, topical nitric oxide gas was applied for eight hours per night.
The nitric oxide therapy was then changed to be used for 12 hours per night, using 200 ppm gNO.

collagenase mRNA = assay: mRNA expression for collagenase following exposure to gNO; assay type: cell-based; conditions: 200 ppm gNO, 24 and 48 hours, with increasing exposure time
Excerpt: Witte M B, et al, (2002) Nitric oxide enhances […] wound healing in diabetes, Br J Surg., 89:1594-601. Thus, Applicants believe that NO may upregulate expression of both collagenase (MMP-1) and gelatinase (MMP-2), which may be important in keeping the wound clean from necrotic tissue while not prolonging the inflammatory phase.

collagen mRNA = assay: mRNA expression for collagen following exposure to NO; assay type: cell-based
Excerpt: Rather than applying exogenous collagenase for enzymatic debridement of necrotic tissue, exposing a wound with necrotic tissue to exogenous NO gas to upregulate endogenous collagenase may be more beneficial. When endogenous collagenase is released by the cell, it automatically releases TIMP's (tissue inhibitor of metalloproteinase). This ensures that the matrix degradation is coordinated and allows the establishment of sharp geographical boundaries of collagenolytic activity and the protection of areas of connective tissue from the activity of the enzyme. In contrast, use of exogenous collagenase material to debride a wound confers no protection to specific areas of the wound as it is active on every cell that comes in contact with it whether or not the effect is desired.
Preferably, after the exposure of the wound to high concentration of nitric oxide gas for a first treatment period (e.g., 5-8 hours per day), the necrotic tissue may be mechanically removed easily and the concentration of nitric oxide gas can be decreased for a second treatment period. The low concentration of nitric oxide gas (e.g., at 5-20 ppm) delivered for the second treatment period may upregulate the expression of collagen mRNA leading to synthesis of new collagen to aid in the closure of the wound. […] The second treatment period may be for a period 7-16 hours per day. […]

psoriatic lesions = assay: Psoriasis study, one volunteer, NO delivered to right foot in plastic boot; assay type: in vivo, human; conditions: 300 ppm
Method: Experiments were conducted using one volunteer who suffers from psoriasis. The subject had psoriasis on their arms, legs and feet, all of which is itchy and painful. At the time of the study, the volunteer was using a medicated cream called DOVOBET on the arms and legs. The subject stopped using the medicated cream on the legs and feet prior to the NO treatments described herein.
Treatments were administered to the subject's right foot, as it appeared to have been affected the most by psoriasis. […] Around the ankle were small red blotches that spread all of the way up the leg. The small blotches were slightly raised and appeared to be inflamed.
The subject's foot was placed into a large plastic boot, which was lightly secured with VELCRO straps halfway up the calf. A tube coming out of the top of the plastic boot was unaltered, and the second tube was sealed off using a plastic clamp. A NO line capable of delivering NO at 300 ppm, 250 cc per minute, was screwed into the bottom tubing closest to the ankle using a plastic screw. A pin was used to pick several holes in the bottom of the plastic boot to allow the NO to flow through the boot. NO was then administered to the boot, and therefore, the psoriatic lesions, at 300 ppm for 180 minutes per day over six consecutive days.

[2] = system: fibroblasts grown in a 3D matrix; assay: Migration and proliferation of fibroblasts grown in a 3D matrix; assay type: cell-based; conditions: 200 ppm NO, 8 hours per day for 3 days, vs air or conventional incubator
human endothelial cells = assay: Tube formation in human endothelial cells grown in matrigel; assay type: cell-based; conditions: 200 ppm NO, 8 hours or 24 hours
Method: Left panels at 8 hours of exposure. Right panels at 24 hours of exposure.

human fibroblasts = assay: Cell attachment capacity of human fibroblasts; assay type: cell-based; conditions: 160 ppm gNO, within 1 hour of culturing; control group the same
Method: FIG. 9 illustrates cell attachment capacity of human fibroblasts following exposure to 160 ppm of gNO.
Capability of cells to reattach to the culture plates within a specified time limit is commonly used as an indication of viability of cells in culture. Both the control and treated groups show a 70% attachment capacity within 1 hour of culturing.

[3] = system: full thickness infected wound; assay: Histology of full thickness infected wound punch biopsies, gNO-treated vs control animals; assay type: in vivo; conditions: for toxic effects (cellular debris) in wound tissue: in vivo exposure, 200 ppm gNO, open wound animal model
Method: FIG. 5 illustrates histology analysis of full thickness infected wound exposed to 200 ppm gNO for 24 hours.
FIG. 5 presents histological analysis of tissue blocks prepared on wound punch biopsies from animals in NO-treated and control groups. Samples from the control group show more advanced neutrophil infiltration and so a higher degree of inflammatory reaction. […] Overall, a healthier healing process is observed in the wounds treated with gNO.

human fibroblast cells = assay: Fibroblast viability study in gNO incubation chamber (morphology, cell count, proliferation); assay type: cell-based
Method: Fibroblast cells obtained from adult patients undergoing elective reconstructive surgery were cultured in Dulbeco's Modified Eagle's Medium (DMEM), supplemented with 10% fetal bovine serum (FBS) and antibiotic-antimycotic preparation and divided into ten 25 cm^2 vented culture flasks (COSTAR). Four of these flasks (treated group) were exposed to 20 or 200 ppm humidified gNO inside a specialized NO incubation chamber at 37° C. for 24 and 48 hours. The NO exposure chamber was validated prior to the study to eliminate extraneous variables and ensure optimal conditions for fibroblast cell growth. Another four flasks (control group) were placed inside conventional culture incubator and exposed only to ambient humidified air at 37° C. Two flasks were separately harvested and counted as the number of cells at zero time. Following the treatment, fibroblast cells were harvested and evaluated for morphology, cell count, capacity to proliferate and medium pH.
Cells under gNO appeared healthy and attached to the culture plates.

[4] = 200 ppm gNO, 12 hours per night, another eight weeks
[5] = after second treatment (day two)
[6] = after third treatment (day three)
[7] = gNO less than 200 ppm continuously for 48 hours

[N]=O [NO, nitric oxide]
clinical outcome (planned amputation) [1, 4]: amputation was avoided | wound covered by beefy red granulation tissue [1, 4]: ~75% | wound appearance ([1]; topical, eight hours per night, within six weeks): less yellow slough in the wound bed, the wound edges appeared less raised, and more granulation buds were present | expression of collagenase mRNA (collagenase mRNA): increased | collagen mRNA expression (collagen mRNA; fibroblasts exposed to 5 ppm of NO): increased collagen mRNA expression | collagen expression (collagen mRNA; high concentration (200 ppm) of exogenous nitric oxide, FIG. 6 left panel): possible inhibition of collagen expression | appearance of the psoriasis (psoriatic lesions; 180 min, after first treatment (day one)): no change | white scales on the ankle (psoriatic lesions; 180 min, after the first day): disappeared | discolored (dark) patch of skin on inner calf (psoriatic lesions; 180 min per day, after day two): almost gone | physical results (psoriatic condition) (psoriatic lesions; after fourth, fifth and sixth treatments (days 4, 5 and 6)): remain the same | inflammation around the ankle (psoriatic lesions; [5]): diminished slightly | small red blotches around the ankle and up the leg (psoriatic lesions; [5]): the same as prior to the treatment | inflammation around the ankle (psoriatic lesions; [6]): decreased considerably | psoriatic lesion around the ankle (area) (psoriatic lesions; [6]): smaller in area | small red blotches around the ankle and up the leg (psoriatic lesions; [6]): appeared the same | migration of fibroblasts [2]: does not appear to affect | proliferation of fibroblasts in 3D matrix [2]: does not appear to interfere with the proliferation | tube formation vs air (human endothelial cells): no significant difference | attachment capacity (human fibroblasts): 70% | neutrophil concentration (inflammatory reaction) in wounds ([3]; 200 ppm gNO for 24 hours, vs control group): lower level of neutrophil concentration | wound closure / healing process (histology) ([3]; 200 ppm gNO for 24 hours, vs control wounds): layer of granular tissue closing on the wound | toxic effects (cellular debris) in wound tissue ([3]; listed as gNO): No toxic effects | toxic effects (cellular debris) in wound tissue ([3]; listed as nitric oxide gas): no toxicity | fibroblast cell proliferation (human fibroblast cells; 200 ppm NO, vs control): increasing proliferation; also recorded: increase in fibroblast cell proliferation | harmful effects on the fibroblast (morphology, cell count, capacity to proliferate, medium pH) (human fibroblast cells; around 200 ppm gNO, 24 and 48 hours, 37° C.): did not have harmful effects | morphological appearance and attachment capacity of treated vs control dermal fibroblasts (human fibroblast cells; [7]): quite comparable | toxic effect due to exposure (human fibroblast cells; [7]): No toxic effect
